Legend:
[1] = Tmax in CD1 mouse at 30 mg/kg, iv; format: ADME, organism-based; details: in vivo
[2] = Cmax in CD1 mouse at 30 mg/kg, po; format: ADME, organism-based; parameters: route oral, dose 30 mg/kg; details: in vivo
[3] = AUC (0 to infinity) in CD1 mouse at 100 mg/kg, po; format: ADME, organism-based; parameters: route oral, time infinity, dose 100 mg/kg; details: in vivo
[4] = Oral bioavailability in CD1 mouse at 100 mg/kg; format: ADME, organism-based; details: in vivo
[5] = Tmax in Sprague-Dawley rat at 10 mg/kg, po; format: ADME, organism-based; details: in vivo
[6] = Reduction of 2-Methylcitric acid in human hepatocytes derived from propionic acidemia patient pretreated for 30 mins followed by 13C-isoleucine addition and measured after 1 hr by MS/MS analysis; format: functional, cell-based; details: hepatocyte
[7] = biological target: T1, Organic anion transporter 3 (Homo sapiens, UniProt Q8TCC7); experiment: Inhibition of human OAT3 assessed as reduction in OAT3-mediated tenofovir transport
T1 sequence (Q8TCC7 whole entry): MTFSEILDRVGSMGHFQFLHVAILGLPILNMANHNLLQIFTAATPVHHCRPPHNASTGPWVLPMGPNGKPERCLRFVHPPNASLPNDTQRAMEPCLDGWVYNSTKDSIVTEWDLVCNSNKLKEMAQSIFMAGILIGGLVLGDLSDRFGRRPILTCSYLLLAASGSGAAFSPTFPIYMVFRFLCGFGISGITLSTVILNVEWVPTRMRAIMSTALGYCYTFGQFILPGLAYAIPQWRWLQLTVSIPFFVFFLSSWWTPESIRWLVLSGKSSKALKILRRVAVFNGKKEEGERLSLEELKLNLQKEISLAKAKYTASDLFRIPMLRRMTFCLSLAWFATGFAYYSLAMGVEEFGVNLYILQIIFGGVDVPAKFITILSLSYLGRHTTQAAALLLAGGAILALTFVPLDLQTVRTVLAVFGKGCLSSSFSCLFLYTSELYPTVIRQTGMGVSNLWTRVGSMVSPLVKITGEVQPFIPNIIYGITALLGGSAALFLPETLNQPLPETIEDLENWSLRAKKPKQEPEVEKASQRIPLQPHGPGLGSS

[8] = Drug metabolism in rat hepatocytes assessed as formation of 2,2-dimethylbutanoic acid-CoA incubated for 1 hrs by MS/MS analysis; format: ADME, cell-based; details: Hepatocyte
[9] = Reduction of acetyl-CoA in human hepatocytes pretreated for 30 mins followed by 13C-isoleucine addition and measured after 1 hr by MS/MS analysis; format: functional, Hepatocyte; parameters: scale not given: the % may be the effect or the level left; details: dose 30 µM, 0.5 h

Compound: CCC(C)(C)C(=O)O [DIMEBUTIC ACID]
- Tmax [1]: 7.5 min
- Cmax [2]: 33700 ng/mL
- AUC(0-inf) [3]: 219 µg·h/mL
- bioavailability [4]: 93.3%
- Tmax [5]: 15 min
- EC50 [6]: 1.1 µM
- IC50 [7]: 3510 µM
- EC50 [8]: 202 µM
- Activity [9]: 20%

Reference: ChEMBL document CHEMBL4808180, “Identification of 2,2-Dimethylbutanoic Acid (HST5040), a Clinical Development Candidate for the Treatment of Propionic Acidemia and Methylmalonic Acidemia” (J Med Chem, 2021)
